# “And” between values parts separate entries of the source, which are not always exact repeats. Identical values can stand only once.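 Following 48 hours of exposure in 96-well plates, responses at five concentrations were used to interpolate endpoints linearly. GI50 is the concentration that inhibits growth by half. TGI is the concentration that stops growth completely.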
# Experiments:
# Experiment in all cases: growth of human tumour cells (NCI), 48 h
# NCI-H460 lung = tested on: NCI-H460 lung
# NCI-H23 lung = tested on: NCI-H23 lung
# T-47D breast = tested on: T-47D breast
# K-562 leukemia = tested on: K-562 leukemia
# MOLT-4 leukemia = tested on: MOLT-4 leukemia
# MCF7 breast = tested on: MCF7 breast
# 786-0 renal = tested on: 786-0 renal
# NCI/ADR-RES ovarian = tested on: NCI/ADR-RES ovarian
# CCRF-CEM leukemia = tested on: CCRF-CEM leukemia
smiles,measurement,setting,value
[Se]=P(c1ccccc1)(c1ccccc1)c1ccc(C(c2ccccc2)=P(c2ccccc2)(c2ccccc2)c2ccccc2)cc1,TGI,NCI-H460 lung,10.9 µM
same,TGI,NCI-H23 lung,13.9 µM
same,TGI,T-47D breast,7.07 µM
same,TGI,K-562 leukemia,3.33 µM
same,TGI,MOLT-4 leukemia,12.6 µM
same,TGI,MCF7 breast,2.93 µM
same,TGI,786-0 renal,10.8 µM
same,TGI,NCI/ADR-RES ovarian,> 54.1 µM
same,TGI,CCRF-CEM leukemia,8.37 µM
O=C(CN1CCN(Cc2ccccc2)CC1)N1CCCn2c1nc1ccccc1c2=O,TGI,NCI-H460 lung,> 100 µM
same,TGI,NCI-H23 lung,> 100 µM
same,TGI,T-47D breast,> 100 µM
same,TGI,K-562 leukemia,> 100 µM
same,TGI,MOLT-4 leukemia,> 100 µM
same,TGI,MCF7 breast,> 100 µM
same,TGI,786-0 renal,> 100 µM
same,TGI,NCI/ADR-RES ovarian,> 100 µM
same,TGI,CCRF-CEM leukemia,> 100 µM
COc1ccc(S(=O)(=O)O)cc1-n1nc(C(=O)Nc2ccccc2)n[n+]1-c1cc(S(=O)(=O)[O-])ccc1OC,TGI,NCI-H460 lung,> 100 µM
same,TGI,NCI-H23 lung,> 100 µM
same,TGI,T-47D breast,> 100 µM
same,TGI,K-562 leukemia,> 100 µM
same,TGI,MOLT-4 leukemia,> 100 µM
same,TGI,MCF7 breast,> 100 µM
same,TGI,786-0 renal,> 100 µM
same,TGI,NCI/ADR-RES ovarian,> 100 µM
same,TGI,CCRF-CEM leukemia,> 100 µM
COC(=O)C(CCc1ccccc1I)C1=CCC2(CC1)OCCO2 (stereo not drawn),TGI,NCI-H460 lung,> 100 µM
same,TGI,NCI-H23 lung,> 100 µM
same,TGI,T-47D breast,71.3 µM
same,TGI,K-562 leukemia,> 100 µM
same,TGI,MOLT-4 leukemia,> 100 µM
same,TGI,MCF7 breast,> 100 µM
same,TGI,786-0 renal,> 100 µM
same,TGI,NCI/ADR-RES ovarian,> 100 µM
same,TGI,CCRF-CEM leukemia,33.7 µM
O=c1[nH]nc(-c2ccccc2)n1/N=C/c1c[nH]c2ccccc12,TGI,NCI-H460 lung,> 100 µM
same,TGI,NCI-H23 lung,> 100 µM
same,TGI,T-47D breast,> 100 µM
same,TGI,K-562 leukemia,> 100 µM
same,TGI,MOLT-4 leukemia,> 100 µM
same,TGI,MCF7 breast,> 100 µM
same,TGI,786-0 renal,> 100 µM
same,TGI,NCI/ADR-RES ovarian,> 100 µM
same,TGI,CCRF-CEM leukemia,> 100 µM
O=C(NCCC(F)(F)C(F)(F)C(F)(F)C(F)(F)F)NC1OC(CO)C(O)C(O)C1O (stereo not drawn),TGI,NCI-H460 lung,> 100 µM
same,TGI,NCI-H23 lung,> 100 µM
same,TGI,T-47D breast,> 100 µM
same,TGI,K-562 leukemia,> 100 µM
same,TGI,MOLT-4 leukemia,> 100 µM
same,TGI,MCF7 breast,> 100 µM
same,TGI,786-0 renal,> 100 µM
same,TGI,NCI/ADR-RES ovarian,> 100 µM
same,TGI,CCRF-CEM leukemia,> 100 µM
CCOC(=O)Oc1cc2c(c(OC)c1OC)-c1ccc(SC)c(=O)cc1C(NC(=O)C(F)(F)F)CC2 (stereo not drawn),TGI,NCI-H460 lung,0.753 µM and 2.47 µM
same,GI50,NCI-H23 lung,< 0.001 µM
same,GI50,T-47D breast,21.4 µM
same,TGI,T-47D breast,81 µM
same,TGI,K-562 leukemia,> 100 µM
same,TGI,MCF7 breast,19.5 µM
same,TGI,786-0 renal,13 µM
same,GI50,NCI/ADR-RES ovarian,0.023 µM
same,TGI,CCRF-CEM leukemia,4.92 µM
CCCCc1c(C(=O)OC(C)(C)C)cc(C#Cc2cc(C(=O)OC(C)(C)C)c(CCCC)c(C(=O)OC(C)(C)C)c2)cc1C(=O)OC(C)(C)C,TGI,NCI-H460 lung,> 100 µM
same,TGI,NCI-H23 lung,> 100 µM
same,TGI,T-47D breast,> 100 µM
same,TGI,MCF7 breast,> 100 µM
same,TGI,786-0 renal,> 100 µM
same,TGI,NCI/ADR-RES ovarian,> 100 µM
O=c1[nH]nc(-c2ccccc2)n1/N=C/c1ccncc1,TGI,NCI-H460 lung,> 100 µM
same,TGI,NCI-H23 lung,> 100 µM
same,TGI,T-47D breast,> 100 µM
same,TGI,K-562 leukemia,> 100 µM
same,TGI,MOLT-4 leukemia,> 100 µM
same,TGI,MCF7 breast,> 100 µM
same,TGI,786-0 renal,> 100 µM
same,TGI,NCI/ADR-RES ovarian,> 100 µM
same,TGI,CCRF-CEM leukemia,> 100 µM
COC(=O)C1=C(C)NC2(O)C=CC(=O)C3C(=O)N(c4ccccc4)C(=O)C132 (stereo not drawn),TGI,NCI-H460 lung,> 100 µM
same,TGI,NCI-H23 lung,> 100 µM
same,TGI,T-47D breast,> 100 µM
same,TGI,K-562 leukemia,> 100 µM
same,TGI,MOLT-4 leukemia,> 100 µM
same,TGI,MCF7 breast,> 100 µM
same,TGI,786-0 renal,> 100 µM
same,TGI,NCI/ADR-RES ovarian,> 100 µM
same,TGI,CCRF-CEM leukemia,> 100 µM
CCOC(=O)c1c(Br)c(-c2ccc(Br)cc2)c(Br)n1C,TGI,NCI-H460 lung,> 100 µM
same,TGI,NCI-H23 lung,> 100 µM
same,TGI,T-47D breast,> 100 µM
same,GI50,K-562 leukemia,11.3 µM
same,TGI,K-562 leukemia,35.1 µM
same,TGI,MOLT-4 leukemia,37.6 µM
same,TGI,MCF7 breast,80.7 µM
same,TGI,786-0 renal,89.7 µM
same,GI50,NCI/ADR-RES ovarian,21.2 µM
same,TGI,NCI/ADR-RES ovarian,87.5 µM
same,TGI,CCRF-CEM leukemia,31.5 µM
